The source of these data is PMC5613053 (Investigational New Drugs, 2017).

The test system of test [1] is Ba/F3 cells expressing FLT3-ITD-F691 L. Nature of the test: CellTiter-Glo cell viability. The test is classed as cell-based. The conditions noted are these: Mus musculus, BaF3, 48 h; 2 days of treatment; read-out: Cell growth inhibition IC50. As to the method:
(§1) A detailed protocol is provided in the online resource.
(§2) To examine the effect of ASP2215 on cell viability, MV4-11, MOLM-13, and Ba/F3 cells expressing either FLT3-ITD, FLT3-D835Y, FLT3-ITD-D835Y, FLT3-ITD-F691L or FLT3-ITD-F691I were seeded into 96-well white plates (Nunc F96 MicroWell™ Plates, white; Thermo Fisher Scientific Inc., Waltham, MA) at 1000 cells/well in Iscove’s Modified Dulbecco’s Medium, 500 cells/well in RPMI 1640 or 1000 cells/well in RPMI 1640, respectively. All cell lines were cultured overnight in a humidified incubator at 37°C with 5% CO2 in media supplemented with 10% heat-inactivated FBS.
(§3) After treatment, the CellTiter-Glo® Luminescent Cell Viability Assay (Promega) was used according to the manufacturer’s instructions and luminescence was measured using an ARVO-HTS plate reader (Perkin Elmer Inc., Waltham, MA). The assay was performed in either triplicate or quadruplicate. […] The geometric mean was calculated from three individual experiments.
(§4) The mutants of FLT3 (NM_004119), FLT3-D835Y (gat to tat), FLT3-ITD (insertion of […] at 1799 position of CDS), FLT3-ITD-F691I (ttt to att), FLT3-ITD-F691L (ttt to ctt), FLT3-ITD-D835Y were encoded into pMX-puro vector (Cell Biolabs, Inc., San Diego, CA), and transfected with FuGENE-HD (Promega) into Platinum-E cells. […]
(ATP-based viability assays read luminescence as a measure of living cells.)

Test [2] has as its system Ba/F3 cells expressing FLT3-ITD-F691I. Nature of the test: CellTiter-Glo cell viability. The test is classed as cell-based. The following applies: Mus musculus, BaF3, 48 h; 2 days of treatment; read-out: Cell growth inhibition IC50. On the procedure: as §1, §2, §3, §4

One may read the IC50 as the concentration at which inhibition is half-maximal.

`CCc1nc(C(N)=O)c(Nc2ccc(N3CCC(N4CCN(C)CC4)CC3)c(OC)c2)nc1NC1CCOCC1` [gilteritinib]: the IC50 in test [1] came to 22 nM; in test [2], 49 nM.
